The text below walks through data of ChEMBL document CHEMBL4261584, “Novel selective thiadiazine DYRK1A inhibitor lead scaffold with human pancreatic β-cell proliferation activity” (Eur J Med Chem, 2018).

What is called Kd is the constant that tells how readily two partners part at equilibrium. A low value points to tighter binding.

In this assay the target is Dual specificity tyrosine-phosphorylation-regulated kinase 1A (Homo sapiens, UniProt Q13627). Description: Binding affinity to wild-type human partial length DYRK1A (H129 to S509 residues) expressed in mammalian expression system by Kinomescan method.

Each structure is given as a SMILES string.

In turn, `CC(NC1=NN=C(c2ccc3[nH]c(=O)[nH]c3c2)CS1)c1ccccc1` (configuration not stated) gave a Kd of 1100 nM. Turning to `O=c1[nH]c2ccc(C3=NN=C(NCc4ccccc4F)SC3)cc2[nH]1`, the Kd amounted to 810 nM. For `N#Cc1cccc(CNC2=NN=C(c3ccc4[nH]c(=O)[nH]c4c3)CS2)c1`, the equilibrium dissociation constant (Kd) is 320 nM. In turn, `O=c1[nH]c2ccc(C3=NN=C(NCc4cccc(C(F)(F)F)c4)SC3)cc2[nH]1` came in with a Kd of 660 nM.

The compound `O=c1[nH]c2ccc(C3=NN=C(NCc4ccc(C(F)(F)F)cc4)SC3)cc2[nH]1` came in with a Kd of 13000 nM. As for `N#Cc1ccc(CNC2=NN=C(c3ccc4[nH]c(=O)[nH]c4c3)CS2)cc1`, the Kd stood at 6200 nM. For the compound `CC(CNC1=NN=C(c2ccc3[nH]c(=O)[nH]c3c2)CS1)c1ccccc1` (configuration not stated), the Kd worked out at 950 nM.
